According to the supplement of paper PMC10307832:

Key:
Assay in all cases: relative viability (nuclei count vs DMSO), 5 days (fraction); higher = more cells survive
Masitinib + Crizotinib = compound: Cc1ccc(NC(=O)c2ccc(CN3CCN(C)CC3)cc2)cc1Nc1nc(-c2cccnc2)cs1 [Masitinib] + C[C@@H](Oc1cc(-c2cnn(C3CCNCC3)c2)cnc1N)c1c(Cl)ccc(F)c1Cl [Crizotinib] (partner 1 µM)
Outline: (§1)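 Lung cancer cell lines, seeded in 1536-well plates, were treated the following day by pin tool with a single drug or with five library-drug doses (not always all listed) in √10 steps on top of a fixed anchor-drug dose. Cells were fixed and nuclei stained in one step after 5 days, and nuclei were counted. Relative viability is the nuclei count for treated wells divided by that for vehicle wells, reported as medians of duplicate plates.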

[1] = compound: CC1=CC(=CC=C1)NC2=NC(=CS2)C3=CC=NC=C3 + Cc1cc(Nc2cc(N3CCN(C)CC3)nc(Sc3ccc(NC(=O)C4CC4)cc3)n2)n[nH]1 [Tozasertib] (partner 0.1 µM)
Outline: as §1

Masitinib + Navitoclax = compound: Cc1ccc(NC(=O)c2ccc(CN3CCN(C)CC3)cc2)cc1Nc1nc(-c2cccnc2)cs1 [Masitinib] + CC1(C)CCC(c2ccc(Cl)cc2)=C(CN2CCN(c3ccc(C(=O)NS(=O)(=O)c4ccc(N[C@H](CCN5CCOCC5)CSc5ccccc5)c(S(=O)(=O)C(F)(F)F)c4)cc3)CC2)C1 [Navitoclax] (partner 0.5 µM)
Outline: as §1

Masitinib + Pemetrexed = compound: Cc1ccc(NC(=O)c2ccc(CN3CCN(C)CC3)cc2)cc1Nc1nc(-c2cccnc2)cs1 [Masitinib] + Nc1nc2[nH]cc(CCc3ccc(C(=O)N[C@@H](CCC(=O)O)C(=O)O)cc3)c2c(=O)[nH]1 [Pemetrexed] (partner 0.2 µM)
Outline: as §1

| Cell Line | relative viability (Masitinib + Crizotinib; first compound 0.01 µM) | relative viability (Masitinib + Crizotinib; first compound 0.03162 µM) | relative viability (Masitinib + Crizotinib; first compound 0.1 µM) | relative viability (Masitinib + Crizotinib; first compound 0.3162 µM) | relative viability (Masitinib + Crizotinib; first compound 1 µM) | relative viability ([1]; first compound 0.08 µM) | relative viability ([1]; first compound 0.253 µM) | relative viability ([1]; first compound 0.8 µM) | relative viability ([1]; first compound 2.53 µM) | relative viability ([1]; first compound 8 µM) | relative viability (Masitinib + Navitoclax; first compound 0.01 µM) | relative viability (Masitinib + Navitoclax; first compound 0.03162 µM) | relative viability (Masitinib + Navitoclax; first compound 0.1 µM) | relative viability (Masitinib + Navitoclax; first compound 0.3162 µM) | relative viability (Masitinib + Navitoclax; first compound 1 µM) | relative viability (Masitinib + Pemetrexed; first compound 0.01 µM) | relative viability (Masitinib + Pemetrexed; first compound 0.03162 µM) | relative viability (Masitinib + Pemetrexed; first compound 0.1 µM) | relative viability (Masitinib + Pemetrexed; first compound 0.3162 µM) | relative viability (Masitinib + Pemetrexed; first compound 1 µM) |
| --- | --- | --- | --- | --- | --- | --- | --- | --- | --- | --- | --- | --- | --- | --- | --- | --- | --- | --- | --- | --- |
| HCC-44 | 0.699 | 0.844 | 0.875 | 0.713 | 0.739 | 0.743 | 0.782 | 0.857 | 0.676 | 0.795 | 0.84 | 0.84 | 0.952 | 0.806 | 0.977 | 0.494 | 0.657 | 0.49 | 0.617 | 0.578 |
| HCC-827 | 0.725 | 0.961 | 0.95 | 0.893 | 0.895 | 0.415 | 0.392 | 0.45 | 0.409 | 0.391 | 0.924 | 0.996 | 1.01 | 0.942 | 1.01 | 0.264 | 0.278 | 0.255 | 0.185 | 0.257 |
| NCI-H1623 |  |  |  |  |  | 0.393 | 0.403 | 0.377 | 0.385 | 0.363 |  |  |  |  |  |  |  |  |  |  |
| NCI-H2405 | 0.77 | 0.784 | 0.848 | 0.802 | 0.746 | 0.65 | 0.727 | 0.541 | 0.691 | 0.602 | 0.874 | 1.01 | 1.07 | 0.731 | 0.825 | 0.962 | 1.05 | 0.98 | 1.04 | 0.704 |
| PC-3 [JPC-3] | 1.02 | 0.974 | 0.975 | 0.968 | 1.01 | 0.837 | 0.803 | 0.789 | 0.771 | 0.61 | 0.768 | 0.682 | 0.806 | 0.659 | 0.787 | 1.04 | 0.733 | 1.06 | 1.37 | 0.87 |
| NCI-H1666 | 0.91 | 1.17 | 1.03 | 0.744 | 0.832 | 0.588 | 0.56 | 0.503 | 0.582 | 0.436 | 0.933 | 0.778 | 0.915 | 0.782 | 0.88 | 0.943 | 0.842 | 0.885 | 0.708 | 0.77 |
| HARA | 0.961 | 0.75 | 1.25 | 1.04 | 1.01 | 0.112 | 0.101 | 0.104 | 0.104 | 0.133 | 1.16 | 1.06 | 1.2 | 1.2 | 1.19 | 0.217 | 0.324 | 0.24 |  | 0.279 |
| NCI-H1651 | 0.802 | 0.89 | 0.819 | 0.839 | 0.839 | 0.62 | 0.684 | 0.561 | 0.531 | 0.51 | 1.11 | 1 | 1.15 | 1.02 | 1.1 | 0.565 | 0.62 | 0.527 | 0.632 | 0.588 |
| NCI-H1395 |  |  |  |  |  | 0.604 | 0.782 | 0.689 | 0.669 | 0.693 | 1.25 | 1.17 | 1.11 | 1.1 | 1.05 | 1.02 | 0.872 | 1.02 | 0.965 | 0.717 |
| LU99A | 0.592 | 0.629 | 0.62 | 0.639 | 0.527 | 0.247 | 0.265 | 0.297 | 0.257 | 0.28 | 0.755 | 0.758 | 0.887 | 0.97 | 0.791 | 0.158 | 0.21 | 0.16 | 0.181 | 0.219 |
| LXF-289 | 0.701 | 0.783 | 0.818 | 0.835 | 0.802 | 0.168 | 0.182 | 0.188 | 0.189 | 0.13 | 0.843 | 0.927 | 0.966 | 0.992 | 0.934 | 0.773 | 0.973 | 0.917 | 0.971 | 0.943 |
| NCI-H1437 | 0.896 | 0.875 | 0.923 | 1.04 | 0.94 | 0.417 | 0.465 | 0.448 | 0.448 | 0.407 | 1.07 | 1.01 | 1.08 | 1.1 | 1.06 | 0.312 | 0.355 | 0.37 | 0.325 | 0.311 |
| HCC-78 | 0.356 | 0.445 | 0.334 | 0.288 | 0.293 |  | 0.402 | 0.365 | 0.405 | 0.391 | 0.722 | 0.822 | 0.839 | 0.77 | 0.763 | 0.933 | 0.877 | 0.887 | 0.987 | 0.893 |
| NCI-H1650 | 0.958 | 1.09 | 0.876 | 0.862 | 1.02 | 0.531 | 0.543 | 0.461 | 0.363 | 0.269 | 1.25 | 0.981 | 1.15 | 1.13 | 1.14 | 0.389 | 0.49 | 0.395 | 0.365 | 0.374 |
